In one experiment the target is T1, TplEi (Pseudomonas aeruginosa, UniProt Q9I3K3).
T1 sequence (Q9I3K3 1-380): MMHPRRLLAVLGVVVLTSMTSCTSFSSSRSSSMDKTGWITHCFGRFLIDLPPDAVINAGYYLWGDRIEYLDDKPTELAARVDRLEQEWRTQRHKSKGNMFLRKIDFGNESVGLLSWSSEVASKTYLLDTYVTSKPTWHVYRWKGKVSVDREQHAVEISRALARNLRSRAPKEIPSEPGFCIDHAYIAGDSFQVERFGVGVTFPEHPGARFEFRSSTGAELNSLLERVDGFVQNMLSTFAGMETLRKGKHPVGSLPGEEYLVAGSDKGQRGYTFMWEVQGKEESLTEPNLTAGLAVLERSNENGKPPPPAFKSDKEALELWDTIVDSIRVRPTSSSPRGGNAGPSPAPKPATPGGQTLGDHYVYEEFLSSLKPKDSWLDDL
The experiment can be described thus: Isothermal titration calorimetry (ITC) of TplE peptides with wild type TplEi. The experiment is classed as binding. The note with it: for Kd: 25°C, 20 mM Tris-HCl pH 8.0, 100 mM NaCl, A peptides (WT) and its mutants, Figure 3D,E; for effect of the mutation on “L” peptide binding to TplEi: result in words, compared to WT peptide. Here is the method:
(§1) Isothermal titration calorimetry (ITC) assay was performed with a MicroCalTM iTC200 calorimeter (MicroCal, USA) at 25°C; both the protein and peptides were dissolved with the same buffer (20 mM Tris-HCl, pH = 8.0, 100 mM NaCl). The concentration of TplEi was between 0.03 and 0.04 mM. The concentrations of wild type peptides and mutants were between 1 and 2 mM. Titration was scheduled with 18 consecutive injections of 2 μl of peptide with a 120 s interval between injections, using a stirring rate of 600 rpm. Data acquisition and analysis were performed using MicroCal Origin software (version 7.0).

The subject of another experiment is E. coli BL21 (DE3). Nature of the experiment: Cell-toxicity assay, spot growth on LB agar. The experiment is classed as cell-based, Escherichia coli. The note with it: 0.045 mM IPTG, 24 h; for decrease of growth inhibition on expression of mutated “L” peptide: E. coli BL21 (DE3) expressing TplE-TplEi and mutated peptide, compared with “L” peptide. Here is the method: Cell-toxicity assay was carried as previously described with minor modification (Jiang et al., [2016]). […] A 2 μl bacterial dilution was spotted onto LB agar plate containing 0.045 mM IPTG. Images were taken after 24 h growth.
(A) Diagrams of TplE, TplE-TplEi and “L” peptide expressing constructs. Expression of vector sequence and “L” peptide mutant with the PelB signal peptide was used as a control. […] A 10-fold serial dilution of overnight culture was spotted on LB agar plates from left to right. The experiments were performed at least 3 times.

A further experiment addresses T2, TplEi E219A mutant (Pseudomonas aeruginosa, UniProt Q9I3K3, E219A).
T2 sequence (Q9I3K3 1-380 E219A): T1 sequence (Q9I3K3 1-380) with E219A
The experiment can be described thus: ITC of the “L” peptide with TplEi mutant E219A. The experiment is classed as binding. Here is the method: as §1
(§2) To further elucidate the mechanism underlying the “L” peptide binding, we mutated several key residues of TplEi interacting with the “L” peptide, and measured the binding affinity of the “L” peptide to these TplEi mutants using ITC. The side chain of K100 of the “L” peptide forms four hydrogen bonds with TplEi, among which only one involves side chain interaction with S215 of TplEi, whereas the other three involve backbone atoms. […] Similarly, we prepared TplEi mutants E219A and R266A, respectively. E219 forms a hydrogen bond with backbone NH group of K100 of the “L” peptide, and R266 forms two hydrogen bonds with the carbonyl group of W96 of the peptide (Figure 3A).

Experiment [1] addresses T3, TplEi R266A mutant (Pseudomonas aeruginosa, UniProt Q9I3K3, R226A, form not given).
T3 sequence (Q9I3K3 1-380 R226A): T1 sequence (Q9I3K3 1-380) with R226A
Nature of the experiment: ITC of the “L” peptide with TplEi mutant R266A. The experiment is classed as binding. The note with it: TplEi R266A vs wild type TplEi. Here is the method:
as §1, §2

In experiment [2] the target is T4, TplEi R266A mutant (Pseudomonas aeruginosa, UniProt Q9I3K3).
T4 sequence (Q9I3K3 1-380 R226A): T1 sequence (Q9I3K3 1-380) with R226A
The experiment can be described thus: ITC of the “L” peptide with TplEi mutant R266A. The class given is binding. The note with it: 25°C, TplEi R266A, Figure S3. The procedure: as §1, §2

In a further experiment the target is T5, TplEi S215A mutant (Pseudomonas aeruginosa, UniProt Q9I3K3, S215A).
T5 sequence (Q9I3K3 1-380 S215A): T1 sequence (Q9I3K3 1-380) with S215A
Nature of the experiment: ITC of the “L” peptide with TplEi mutant S215A. The class given is binding. Here is the method: as §1, §2

Numbering of substitutions follows the chain as printed.

As usually defined, the Kd is the free concentration of one partner at which half of the binding sites on the other are occupied at equilibrium, for simple one-to-one binding. Read a low Kd as tighter binding. Regarding “Ac-DDLFASIGALWTWAARGPKARQELLKAEQVEVDD-NH2 [W96A]”, at TplEi, the Kd worked out at 0.031 µM and the “effect of the mutation on “L” peptide binding to TplEi” value (shortened to “effect of the mutation”) was “increased binding affinity”.
Turning to “DDLFASIGALWTWAWRGPEARQELLKAEQVEVDD [K100E]”, in the experiment on E. coli BL21 (DE3), the “decrease of growth inhibition on expression of mutated “L” peptide” value is on record as “strong”. At TplEi, the “effect of the mutation” value is recorded as “completely abolished”.
Substance “Ac-DDLFASAGALWTWAWRGPKARQELLKAEQVEVDD-NH2 [I88A]” gave a Kd on TplEi of 4.8 µM.
On to “Ac-DDLFASIGALWTWAWRGPKARQELLKAEQVEVDD-NH2 [“L” peptide]”, for which, in the experiment with E. coli BL21 (DE3) (E. coli BL21 (DE3) expressing periplasmic-targeted TplE-TplEi and peptide, 10-fold serial dilutions, at least 3 experiments), the “growth inhibition on expression of the peptide” value is “significant TplE-dependent growth inhibition”. Further, the Kd at TplEi E219A mutant (25°C, TplEi E219A, Figure S3) is 35.5 µM; on TplEi R266A mutant [2], 46.9 µM; at TplEi S215A mutant (25°C, TplEi S215A, Figure S3) it was 7.8 µM. Moreover, the decreased binding affinity worked out at 284 folds on TplEi E219A mutant (TplEi E219A vs wild type TplEi) and 375 folds at TplEi R266A mutant [1]. The “reduced binding affinity comparing to wild type TplEi” value at TplEi S215A mutant (TplEi S215A vs wild type TplEi) is about 62 folds.
As for “Ac-DDLFASIGALWTWAWRGAKARQELLKAEQVEVDD-NH2 [P99A]”, on TplEi, the Kd worked out at 0.057 µM and the “effect of the mutation” value is listed as “increased binding affinity”.
Turning to “Ac-DDLFASIGALWTWAWRAPKARQELLKAEQVEVDD-NH2 [G98A]”, the Kd at TplEi was determined as 1.31 µM.
The same measure, in the same setting: as for “Ac-DDLFASIGAAWTWAWRGPKARQELLKAEQVEVDD-NH2 [L91A]”, the figure is 3.7 µM.
For “Ac-DDLFASIGALATWAWRGPKARQELLKAEQVEVDD-NH2 [W92A]”, the “decrease of growth inhibition on expression of mutated “L” peptide” value with E. coli BL21 (DE3) is “moderate decreased growth inhibition”. On TplEi, this substance gave a Kd of 50 µM.
